17 molecules from article PMC8815882, “Screening the pandemic response box identified benzimidazole carbamates, Olorofim and ravuconazole as promising drug candidates for the treatment of eumycetoma” (PLoS Neglected Tropical Diseases, 2022) can be followed below.

SMILES strings stand for the structures. Where two headings read alike, the source gives them in different places.

In this test the test system is M. mycetomatis genome strain MM55. The experiment in a line: CLSI M38-A2 based in vitro susceptibility screening (XTT or resazurin), growth at fixed concentration. In kind it is cell-based, Madurella mycetomatis. As to conditions: Madurella mycetomatis; for Percent fungal survival at 100 µM: read-out: Percentage survival at 100um, 100 uM A (second replicate column).
Setting [1] is: 25 uM, mean, read-out: Percentage survival at 25um, 25 uM mean.
[2] abbreviates: 25 uM, replicate A, read-out: Percentage survival at 25um, 25 um A.
Setting [3] is: 25 uM, replicate B, read-out: Percentage survival at 25um, 25 uM B.
Setting [4] is: 25 uM, replicate C, read-out: Percentage survival at 25um, 25 uM C.
[5] abbreviates: mean, read-out: Percentage survival at 100um, 100 uM mean.
The mark [6] stands for this setting: replicate (first column), read-out: Percentage survival at 100um, 100 uM A.
[7] abbreviates: replicate (second column), read-out: Percentage survival at 100um, 100 uM A.
[8] abbreviates: replicate (third column), read-out: Percentage survival at 100um, 100 uM A.
Setting [9] is: 25 uM, mean of three replicates, read-out: Percentage survival at 25um, 25 uM mean.
[10] abbreviates: first replicate column, read-out: Percentage survival at 100um, 100 uM A.
Setting [11] is: mean of three replicates, read-out: Percentage survival at 100um, 100 uM mean.
Where [12] appears, read: second replicate column, read-out: Percentage survival at 100um, 100 uM A.
The mark [13] stands for this setting: third replicate column, read-out: Percentage survival at 100um, 100 uM A.
The mark [14] stands for this setting: 25 uM, mean of replicates, read-out: Percentage survival at 25um, 25 uM mean.
Setting [15] is: mean of replicates, read-out: Percentage survival at 100um, 100 uM mean.
Where [16] appears, read: replicate 1, read-out: Percentage survival at 100um, 100 uM A.
Setting [17] is: replicate 2, read-out: Percentage survival at 100um, 100 uM A.
[18] abbreviates: replicate 3, read-out: Percentage survival at 100um, 100 uM A.
Where [19] appears, read: replicate 1, read-out: Percentage survival at 100um, 100 uM A (first replicate column).
Where [20] appears, read: replicate 3, read-out: Percentage survival at 100um, 100 uM A (third replicate column).

With `CN(C/C=C/C#CC(C)(C)C)Cc1cccc2ccccc12` [MMV1634359], the activity at 25 µM under setting [1] worked out at 97.3%, the activity at 25 µM under setting [2] was 132%, the activity at 25 µM under setting [3] worked out at 99.8% and the activity at 25 µM under setting [4] was determined as 60.4%. The activity at 100 µM under setting [5] is 81.5%, the activity at 100 µM under setting [6] was found to be 86.8%, the activity at 100 µM under setting [7] amounted to 58.9% and the activity at 100 µM under setting [8] came to 98.8%.
As for `CCc1cc(CCC(=O)Nc2ccccc2O)c(=O)[nH]c1C` [MMV1782106], the activity at 25 µM is, setting by setting: under setting [9], 91.9%; under setting [2], 84.9%; under setting [3], 85.4%; under setting [4], 105%. Moreover, the activity at 100 µM stood at 83.7% under setting [10], 83.9% under setting [11], 82.9% under setting [12] and 85.1% under setting [13].
As for `COc1cc(C(C)(C)CCCC(C)C)cc(OC)c1OC` [MMV1782102], the activity at 25 µM is, setting by setting: under setting [9], 78.4%; under setting [2], 88.5%; under setting [3], 83%; under setting [4], 63.5%. Moreover, the activity at 100 µM was found to be 90.3% under setting [10], 83.9% under setting [11], 86% under setting [12] and 75.5% under setting [13].
On to `Cc1nc2ccc(Cl)cc2c(-c2ccccc2)c1CC(=O)O` [MMV1580801], for which the activity at 25 µM amounted to 86.1% under setting [9], 87.4% under setting [2], 94.3% under setting [3] and 76.7% under setting [4]. In addition, the activity at 100 µM is, setting by setting: under setting [10], 85.8%; under setting [11], 83.4%; under setting [12], 76.8%; under setting [13], 87.5%.
On to `CCc1cc(CCCOc2c(C)cc(-c3noc(C(F)(F)F)n3)cc2C)on1` [MMV1634556], for which the activity at 25 µM is, setting by setting: under setting [9], 87%; under setting [2], 70.7%; under setting [3], 105%; under setting [4], 85.5%. The activity at 100 µM reads like this: under setting [10], 76.5%; under setting [11], 73%; under setting [12], 74.6%; under setting [13], 68%.
`Nc1nnc(-c2ccc(Cl)cc2)s1` [MMV046261]: the activity at 25 µM runs as follows: under setting [14], 82.4%; under setting [2], 77.9%; under setting [3], 83%; under setting [4], 86.2%. Further, the activity at 100 µM reads like this: under setting [15], 69.4%; under setting [16], 62.5%; under setting [17], 72.1%; under setting [18], 73.6%.
On to `Cn1cc(NC(=O)c2cc(NC(=O)c3ccc(/C=C/c4cnc5ccccc5c4)cc3)cn2C)cc1C(=O)NCCN1CCOCC1` [MMV1634391], for which the activity at 25 µM was found to be 73.9% under setting [14], 63.4% under setting [2], 79.1% under setting [3] and 79.2% under setting [4]. Also, the activity at 100 µM stood at 60.7% under setting [15], 61% under setting [16], 53.1% under setting [17] and 68% under setting [18].
As to `OB1OCc2cc(Cl)ccc21` [MMV1634363], the activity at 25 µM is 33.1% under setting [1], 51.2% under setting [2], -4.3% under setting [3] and 52.5% under setting [4]. Further, the activity at 100 µM under setting [5] came out at 61.8%, the activity at 100 µM under setting [6] was determined as 40.7%, the activity at 100 µM under setting [7] was 85.6% and the activity at 100 µM under setting [8] was determined as 59.1%.
On to `OC1O[C@H](CSc2ccc(F)cc2)[C@@H](O)[C@H]1O` (stereo partly shown) [MMV1581550], for which the activity at 25 µM runs as follows: (25 uM, mean of three, M. mycetomatis MM55, read-out: Percentage survival at 25um, 25 uM mean) 91%; (25 uM, replicate A, M. mycetomatis MM55, read-out: Percentage survival at 25um, 25 um A) 97.5%; (25 uM, replicate B, M. mycetomatis MM55, read-out: Percentage survival at 25um, 25 uM B) 90.1%; (25 uM, replicate C, M. mycetomatis MM55, read-out: Percentage survival at 25um, 25 uM C) 85.4%. For the same molecule, the activity at 100 µM is, setting by setting: (mean of three, M. mycetomatis MM55, read-out: Percentage survival at 100um, 100 uM mean) 85.6%; (replicate 1, M. mycetomatis MM55, read-out: Percentage survival at 100um, 100 uM A (first replicate column)) 80.9%; (replicate 3, M. mycetomatis MM55, read-out: Percentage survival at 100um, 100 uM A (third replicate column)) 83.9%. Moreover, the Percent fungal survival at 100 µM (replicate 2, M. mycetomatis MM55) was determined as 92.1%.
Regarding `C[C@@H](NC(=O)c1ccccc1-c1ccccc1)B(O)O` [MMV1582493], the activity at 25 µM under setting [1] is 84.3%, the activity at 25 µM under setting [2] was determined as 92.1%, the activity at 25 µM under setting [3] is 87.2% and the activity at 25 µM under setting [4] was found to be 73.6%. Besides, the activity at 100 µM runs as follows: under setting [5], 83.3%; under setting [6], 92.5%; under setting [7], 73.6%; under setting [8], 83.9%.
Take `Cc1onc(-c2ccccc2)c1-c1ccc(S(N)(=O)=O)cc1` [MMV002260]: the activity at 25 µM by setting is: under setting [9], 81.4%; under setting [2], 85.1%; under setting [3], 77.3%; under setting [4], 81.8%. The activity at 100 µM by setting is: under setting [11], 99.5%; under setting [19], 101%; under setting [20], 76.9%. In addition, under “replicate 2”, the Percent fungal survival at 100 µM amounted to 120%.
For `O=c1nc(N2CCN(CC3CCCCC3)CC2)sc2c([N+](=O)[O-])cc(C(F)(F)F)cc12` [MMV1578885], the activity at 25 µM is, setting by setting: under setting [9], 90.5%; under setting [2], 84.1%; under setting [3], 98%; under setting [4], 89.5%. Also, the activity at 100 µM by setting is: under setting [11], 82.7%; under setting [19], 87.8%; under setting [20], 84.8%. For the same molecule, the Percent fungal survival at 100 µM (replicate 2) amounted to 75.6%.
`O=C(O)c1ccc(-c2ccc(O[C@H]3O[C@H](CO)[C@@H](O)[C@H](O)[C@@H]3O)cc2)cc1` [MMV1633970]: the activity at 25 µM is 80.8% under setting [14], 83.4% under setting [2], 84.3% under setting [3] and 74.7% under setting [4]. For the same molecule, the activity at 100 µM reads like this: under setting [15], 73.9%; under setting [16], 68.9%; under setting [17], 82.1%; under setting [18], 70.6%.
In the case of `CN(C)CCNC(=O)c1cccc2cccnc12` [MMV811071], the activity at 25 µM was found to be 84.2% under setting [14], 90.3% under setting [2], 90.7% under setting [3] and 71.6% under setting [4]. Also, the activity at 100 µM turned out to be 85.2% under setting [15], 79.4% under setting [16], 92.5% under setting [17] and 83.6% under setting [18].
Take `[N-]=[N+]=N[C@H]1C[C@H](n2ccc(=O)[nH]c2=O)O[C@@H]1CO` [MMV1593520]: the activity at 25 µM runs as follows: under setting [2], 94.3%; (read-out: Percentage survival at 25um, 25 uM B) 107%; (read-out: Percentage survival at 25um, 25 uM C) 100%; (read-out: Percentage survival at 25um, 25 uM mean) 100%. The activity at 100 µM reads like this: under setting [10], 91.5%; under setting [11], 87%; under setting [12], 80.1%; under setting [13], 89.4%.
For the molecule `Cc1cc(C)n(O)c(=O)c1` [MMV1782389], the activity at 25 µM is, setting by setting: under setting [1], 81.5%; under setting [2], 87.4%; under setting [3], 82.9%; under setting [4], 74.1%. In addition, the activity at 100 µM reads like this: under setting [5], 81.6%; under setting [6], 67.6%; under setting [7], 78.2%; under setting [8], 99.1%.
On to `CCOc1ccc(/C=N/NC(=O)C2CC2c2ccc(C(C)(C)C)cc2)cc1OCC` (stereo not shown) [MMV1634398], for which the activity at 25 µM was 85.9% under setting [14], 88.3% under setting [2], 97.5% under setting [3] and 72% under setting [4]. For the same molecule, the activity at 100 µM was determined as 81.1% under setting [15], 88.5% under setting [19] and 67.1% under setting [20]. In addition, the Percent fungal survival at 100 µM (replicate 2) worked out at 87.7%.
